Experimental data published in article PMC6733504, “Effects of flavoring compounds used in electronic cigarette refill liquids on endothelial and vascular function” (PLoS ONE, 2019).

Key:
[1] = system: endothelium-denuded rat aortic rings; test: CaCl2-induced contractile response in endothelium-denuded aortic rings; settings: Ca2+-free high K+ solution, CaCl2 0.156-2.5 mM
Protocol: Rings were treated with Ca2+-
4 free high K+ solution (containing 0.1 mM EG TA a n d 6 0 mM K+). The Ca2+-free
5 preparations were then cumulatively contracted with CaCl2 (0.156-2.5 mM) in the
6 absence or presence of cinnamaldehyde or eugenol. The established L-type Ca2+
9 Concentration-response curves obtained with different ring segments from a single
10 animal were averaged and counted as an individual experiment. Data are expressed
11 as mean values ±SEM ( n=3).
(1 picture or pasted object on this page, not shown here)

NO synthase (NOS) = target: T1, NO synthase (NOS) (Sus scrofa, UniProt Q28969); test: Endothelial L-citrulline formation (NOS activity in intact cells); format: cell-based, porcine; settings: for Direct effect on NOS-catalyzed L-citrulline formation: 1 mM, absence of A23187 (S1 Fig)
T1 construct: endogenous in cells; host or cells: primary porcine aortic endothelial cells (up to 3 passages)
T1 sequence (Q28969 1-1205): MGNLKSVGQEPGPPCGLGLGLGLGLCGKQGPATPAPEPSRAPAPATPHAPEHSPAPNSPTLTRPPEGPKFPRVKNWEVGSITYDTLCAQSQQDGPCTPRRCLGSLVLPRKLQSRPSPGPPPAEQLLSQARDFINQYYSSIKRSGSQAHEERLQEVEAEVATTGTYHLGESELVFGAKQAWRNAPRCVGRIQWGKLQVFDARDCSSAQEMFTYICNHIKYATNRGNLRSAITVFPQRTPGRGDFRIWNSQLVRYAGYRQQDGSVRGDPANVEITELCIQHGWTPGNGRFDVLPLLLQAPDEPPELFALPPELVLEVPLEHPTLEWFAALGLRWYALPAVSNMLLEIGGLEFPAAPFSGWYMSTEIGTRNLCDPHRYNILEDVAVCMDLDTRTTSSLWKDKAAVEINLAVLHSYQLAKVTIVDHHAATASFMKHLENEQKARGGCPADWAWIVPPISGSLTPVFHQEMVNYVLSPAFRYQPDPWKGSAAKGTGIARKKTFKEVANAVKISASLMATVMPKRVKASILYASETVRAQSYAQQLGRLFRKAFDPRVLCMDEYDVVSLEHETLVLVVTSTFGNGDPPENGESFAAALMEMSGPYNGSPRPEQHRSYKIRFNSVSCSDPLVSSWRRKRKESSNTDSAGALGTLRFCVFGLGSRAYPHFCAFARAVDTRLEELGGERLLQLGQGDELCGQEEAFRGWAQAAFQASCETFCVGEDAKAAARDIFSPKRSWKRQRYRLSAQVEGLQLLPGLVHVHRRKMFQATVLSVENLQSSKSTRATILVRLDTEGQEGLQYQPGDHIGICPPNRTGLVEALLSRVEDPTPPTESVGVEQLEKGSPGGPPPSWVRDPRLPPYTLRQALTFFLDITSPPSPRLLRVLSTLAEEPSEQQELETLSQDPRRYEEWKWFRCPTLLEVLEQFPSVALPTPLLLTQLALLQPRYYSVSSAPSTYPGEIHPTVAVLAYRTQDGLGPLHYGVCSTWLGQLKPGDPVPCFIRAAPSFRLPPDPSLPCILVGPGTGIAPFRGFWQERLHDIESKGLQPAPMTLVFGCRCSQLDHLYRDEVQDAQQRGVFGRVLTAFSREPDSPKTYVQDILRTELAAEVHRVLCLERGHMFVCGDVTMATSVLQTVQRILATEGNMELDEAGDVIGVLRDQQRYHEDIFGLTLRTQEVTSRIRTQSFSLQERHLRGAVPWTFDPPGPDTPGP
Protocol: NO synthase (NOS) activity in intact cells was determined by monitoring the conversion of L-[^3H]arginine into L-[^3H]citrulline as previously described. […] Subsequent to lysis of the cells with 0.01 M HCl, an aliquot was removed for determination of incorporated radioactivity. To the remaining sample, 200 mM sodium acetate buffer ([…]) containing 10 mM L-citrulline was added (final pH ~5.0), and L-[^3H]citrulline was separated from L-[^3H]arginine by cation exchange chromatography.

[2] = system: endothelium-denuded rat aortic rings; test: cAMP and cGMP levels in endothelium-denuded aortic rings
Description: 1 S4 Table. […]
2 endothelium-denuded rat aortic rings.
Flavoring (fmol x mg-1) (fmol x mg-1)
4 En d o th e liu m-denuded rings, treated with test compounds as described in the
5 Materials and methods section of the main text, were freeze-clamped when maximal
6 relaxation had been reached. Rings were homogenized in 5% trichloroacetic acid
7 and analyzed for cAMP and cGMP by radioimmunoassay. Forskolin and DEA/NO
8 were used to induce maximal accumulation of cAMP and cGMP, respectively. Data
9 shown are mean values±SEM of 3 (forskolin and DEA/NO) or 6 (basal,
10 cinnamaldehyde and eugenol) rings; n.d., not determined, *p<0.05 vs. basal (ANOVA
11 and Dunnett's post hoc test).

Row | SMILES | Effect on CaCl2-induced contraction [1] | Direct effect on NOS-catalyzed L-citrulline formation (NO synthase (NOS)) | cAMP ([2]; 1 mM) [fmol x mg-1] | cGMP ([2]; 1 mM) [fmol x mg-1] | cAMP ([2]; 10 mM) [fmol x mg-1] | cGMP ([2]; 10 mM) [fmol x mg-1] | Concentration inhibiting Ca2+-stimulated NO synthase activation (NO synthase (NOS)) [mM] | Effect on A23187-stimulated L-citrulline formation (endothelial NOS activity) (NO synthase (NOS); 0.3 and 1.0 mM (Fig 2A))
1 | C=CCc1ccc(O)c(OC)c1 [Eugenol, 2-Methoxy-4-(prop-2-en-1-yl)phenol] | significantly inhibited | neither eugenol nor cinnamaldehyde increased | 162±9 | 81±4 | 171±24 | 71±18 |  | 
2 | O=C/C=C/c1ccccc1 [Cinnamaldehyde, (2E)-3-Phenylprop-2-enal] | significantly inhibited | neither eugenol nor cinnamaldehyde increased | 200±36 | 127±10 | 161±7 | 86±7 | ≥ 0.3 | significantly inhibited
